Assay results taken from patent US20260070945A1, “MACROCYCLIC IMMUNOMODULATORS” (Bristol-Myers Squibb Company, priority 2022, published 2026).
Where a SMILES comes first, the peptide text is derived from it. Bridges are numbered along the chain shown (N, C = ends). [ ]: non-standard residue; d: D form. The star is where a group is joined. ξ: configuration not given here. Phe(4-CONH2) = NC(=O)c1ccc(C[C@H](N)C(=O)O)cc1; Phe(4-COOH) = N[C@@H](Cc1ccc(C(=O)O)cc1)C(=O)O; Bip = N[C@@H](Cc1ccc(-c2ccccc2)cc1)C(=O)O; Phe(3-Me) = Cc1cccc(C[C@H](N)C(=O)O)c1; Val(3-OH) = CC(C)(O)[C@H](N)C(=O)O; Cha = N[C@@H](CC1CCCCC1)C(=O)O; Thr(3ξ) = CC(O)[C@H](N)C(=O)O; 12Ado = NCCCCCCCCCCCC(=O)O; hSer = N[C@@H](CCO)C(=O)O; Carboxymethyl = O=C(O)C*; NMeA = CN[C@@H](C)C(=O)O; Orn = NCCC[C@H](N)C(=O)O; Aun = NCCCCCCCCCCC(=O)O; Dab = NCC[C@H](N)C(=O)O; Dap = NC[C@H](N)C(=O)O; AEEA = NCCOCCOCC(=O)O

Biological target: T1, PD-1/PD-L1 interaction (PE-labeled human PD-L1-Ig binding to Jurkat cell line over-expressing human PD-1) (Homo sapiens, UniProt Q15116)
T1 construct: expressed in transfected cells; host or cells: Jurkat
Test: Jurkat-PD-1 Cell Binding High-Content Screening Assay (CBA)
Details: Jurkat-hPD-1 cells, PE-labeled PD-L1-Ig 20 nM final; read-out: Jurkat HPD1 PDL1 IC50
In short: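 In this imaging assay, cells in 10% FCS medium see compound for 2 h at 37 °C and then labeled ligand at 20 nM final for 1 h. Paraformaldehyde fixation, Hoechst 33342 staining and dPBS washes precede image capture.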

T1 sequence (Q15116 25-288): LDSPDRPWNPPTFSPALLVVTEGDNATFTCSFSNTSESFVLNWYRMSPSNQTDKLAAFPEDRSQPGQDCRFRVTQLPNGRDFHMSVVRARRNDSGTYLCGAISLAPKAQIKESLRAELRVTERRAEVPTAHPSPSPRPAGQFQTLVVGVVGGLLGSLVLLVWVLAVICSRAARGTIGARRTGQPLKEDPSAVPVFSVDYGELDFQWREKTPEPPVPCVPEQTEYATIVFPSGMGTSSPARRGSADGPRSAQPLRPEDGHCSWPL

Row | Compound | IC50
1 | CC(=O)NCCCC[C@@H]1NC(=O)[C@H](Cc2ccc(-c3ccccc3)cc2)NC(=O)[C@H](Cc2ccc(O)cc2)NC(=O)[C@H](Cc2cccc(C)c2)NC(=O)[C@H](CC(=O)O)NC(=O)[C@H](Cc2ccc(OCC(=O)O)cc2)NC(=O)[C@H](CCN)NC(=O)CSC[C@@H](C(=O)N[C@@H](CCN)C(=O)NCCCCCCCCCCC(=O)O)NC(=O)[C@H](C(C)O)NC(=O)[C@H](C(C)C)NC(=O)[C@H](CC2CCCCC2)NC(=O)[C@H](CCN)NC(=O)[C@@H](CC(C)C)NC(=O)[C@H](C)N(C)C1=O (stereo partly drawn) [Example 2421] ({CH2CO}-[Dab]Y(Carboxymethyl)D[Phe(3-Me)]Y[Bip]K(Ac)[NMeA][dL][Dab][Cha]V[Thr(3ξ)]C[Dab][Aun]-OH; thioether N-14) | 0.0146 µM
2 | CC(=O)NCCCC[C@@H]1NC(=O)[C@H](Cc2ccc(-c3ccccc3)cc2)NC(=O)[C@H](Cc2ccc(O)cc2)NC(=O)[C@H](Cc2cccc(C)c2)NC(=O)[C@H](CC(=O)O)NC(=O)[C@H](Cc2ccc(OCC(=O)O)cc2)NC(=O)[C@H](Cc2ccc(OCC(=O)O)cc2)NC(=O)CSC[C@@H](C(=O)NCCOCCOCC(=O)NCCCCCCCCCCC(=O)O)NC(=O)[C@H](CCO)NC(=O)[C@H](C(C)C)NC(=O)[C@H](CC2CCCCC2)NC(=O)[C@H](CCN)NC(=O)[C@@H](CC(C)C)NC(=O)[C@H](C)N(C)C1=O [Example 2422] ({CH2CO}-Y(Carboxymethyl)Y(Carboxymethyl)D[Phe(3-Me)]Y[Bip]K(Ac)[NMeA][dL][Dab][Cha]V[hSer]C[AEEA][Aun]-OH; thioether N-14) | 0.0249 µM
3 | Cc1cccc(C[C@@H]2NC(=O)[C@H](CC(=O)O)NC(=O)[C@H](Cc3ccc(OCC(=O)O)cc3)NC(=O)[C@H](Cc3ccc(C(N)=O)cc3)NC(=O)CSC[C@@H](C(=O)N[C@H](CC(N)=O)C(=O)NCCOCCOCC(=O)NCCCCCCCCCCC(=O)O)NC(=O)[C@H](CO)NC(=O)[C@H](C(C)C)NC(=O)[C@H](CC3CCCCC3)NC(=O)[C@H](CCN)NC(=O)[C@@H](CC(C)C)NC(=O)[C@H](C)N(C)C(=O)[C@H](Cc3ccc(O)cc3)NC(=O)[C@H](Cc3ccc(-c4ccccc4)cc3)NC(=O)[C@H](Cc3ccc(OCC(=O)O)cc3)NC2=O)c1 [Example 2423] ({CH2CO}-[Phe(4-CONH2)]Y(Carboxymethyl)D[Phe(3-Me)]Y(Carboxymethyl)[Bip]Y[NMeA][dL][Dab][Cha]VSC[dN][AEEA][Aun]-OH; thioether N-14) | 0.0142 µM

Next, values leading:

Row | IC50 | Compound
4 | 0.0524 µM | CC(=O)NCCCC[C@@H]1NC(=O)[C@H](Cc2ccc(-c3ccccc3)cc2)NC(=O)[C@H](Cc2ccc(O)cc2)NC(=O)[C@H](Cc2cccc(C)c2)NC(=O)[C@H](CC(=O)O)NC(=O)[C@H](Cc2ccc(OCC(=O)O)cc2)NC(=O)[C@H](CCN)NC(=O)CSC[C@@H](C(=O)NCCOCCOCC(=O)NCCCCCCCCCCC(=O)O)NC(=O)[C@H](C(C)O)NC(=O)[C@H](C(C)C)NC(=O)[C@H](CC2CCCCC2)NC(=O)[C@H](CCN)NC(=O)[C@@H](CC(C)C)NC(=O)[C@H](C)N(C)C1=O (stereo partly drawn) [Example 2419] ({CH2CO}-[Dab]Y(Carboxymethyl)D[Phe(3-Me)]Y[Bip]K(Ac)[NMeA][dL][Dab][Cha]V[Thr(3ξ)]C[AEEA][Aun]-OH; thioether N-14)
5 | 0.0354 µM | CC(=O)NCCCC[C@@H]1NC(=O)[C@H](Cc2ccc(-c3ccccc3)cc2)NC(=O)[C@H](Cc2ccc(O)cc2)NC(=O)[C@H](Cc2cccc(C)c2)NC(=O)[C@H](CC(=O)O)NC(=O)[C@H](Cc2ccc(OCC(=O)O)cc2)NC(=O)[C@H](C(C)O)NC(=O)CSC[C@@H](C(=O)NCCOCCOCC(=O)NCCCCCCCCCCC(=O)O)NC(=O)[C@H](C(C)O)NC(=O)[C@H](C(C)C)NC(=O)[C@H](CC2CCCCC2)NC(=O)[C@H](CCN)NC(=O)[C@@H](CC(C)C)NC(=O)[C@H](C)N(C)C1=O (stereo partly drawn) [Example 2420] ({CH2CO}-[Thr(3ξ)]Y(Carboxymethyl)D[Phe(3-Me)]Y[Bip]K(Ac)[NMeA][dL][Dab][Cha]V[Thr(3ξ)]C[AEEA][Aun]-OH; thioether N-14)
6 | 0.108 µM | Cc1cccc(C[C@@H]2NC(=O)[C@H](CC(=O)O)NC(=O)[C@H](Cc3ccc(C(=O)O)cc3)NC(=O)[C@H](C(C)O)NC(=O)CSC[C@@H](C(=O)N[C@@H](CCCN)C(=O)N[C@@H](CO)C(=O)NCCCCCCCCCCCC(=O)O)NC(=O)[C@H](CO)NC(=O)[C@H](CCCCN)NC(=O)[C@H](CC3CCCCC3)NC(=O)[C@H](CCN)NC(=O)[C@@H](CC(C)C)NC(=O)[C@H](C)N(C)C(=O)[C@H](Cc3ccc(OCC(=O)O)cc3)NC(=O)[C@H](Cc3ccc(-c4ccccc4)cc3)NC(=O)[C@H](Cc3ccc(OCC(=O)O)cc3)NC2=O)c1 (stereo partly drawn) [Example 2424] ({CH2CO}-[Thr(3ξ)][Phe(4-COOH)]D[Phe(3-Me)]Y(Carboxymethyl)[Bip]Y(Carboxymethyl)[NMeA][dL][Dab][Cha]KSC[Orn]S[12Ado]-OH; thioether N-14)
7 | 0.0156 µM | Cc1cccc(C[C@@H]2NC(=O)[C@H](CC(=O)O)NC(=O)[C@H](Cc3ccc(OCC(=O)O)cc3)NC(=O)[C@H](CCN)NC(=O)CSC[C@@H](C(=O)N[C@@H](CCN)C(=O)NCCCCCCCCCCC(=O)O)NC(=O)[C@H](CO)NC(=O)[C@H](C(C)O)NC(=O)[C@H](CC3CCCCC3)NC(=O)[C@H](CCN)NC(=O)[C@@H](CC(C)C)NC(=O)[C@H](C)N(C)C(=O)[C@H](Cc3ccc(OCC(=O)O)cc3)NC(=O)[C@H](Cc3ccc(-c4ccccc4)cc3)NC(=O)[C@H](Cc3ccc(OCC(=O)O)cc3)NC2=O)c1 (stereo partly drawn) [Example 2425] ({CH2CO}-[Dab]Y(Carboxymethyl)D[Phe(3-Me)]Y(Carboxymethyl)[Bip]Y(Carboxymethyl)[NMeA][dL][Dab][Cha][Thr(3ξ)]SC[Dab][Aun]-OH; thioether N-14)

Same assay, conditions: PE-labeled PD-L1-Ig 20 nM final, Jurkat-hPD-1 cells; read-out: Jurkat HPD1 PDL1 IC50

Row | Compound | IC50
8 | Cc1cccc(C[C@@H]2NC(=O)[C@H](CC(=O)O)NC(=O)[C@H](Cc3ccc(OCC(=O)O)cc3)NC(=O)[C@H](CN)NC(=O)CSC[C@@H](C(=O)N[C@@H](CCN)C(=O)NCCCCCCCCCCC(=O)O)NC(=O)[C@H](CO)NC(=O)[C@H](Cc3cnc[nH]3)NC(=O)[C@H](CC3CCCCC3)NC(=O)[C@H](CCN)NC(=O)[C@@H](CC(C)C)NC(=O)[C@H](C)N(C)C(=O)[C@H](Cc3ccc(OCC(=O)O)cc3)NC(=O)[C@H](Cc3ccc(-c4ccccc4)cc3)NC(=O)[C@H](Cc3ccc(OCC(=O)O)cc3)NC2=O)c1 [Example 2427] ({CH2CO}-[Dap]Y(Carboxymethyl)D[Phe(3-Me)]Y(Carboxymethyl)[Bip]Y(Carboxymethyl)[NMeA][dL][Dab][Cha]HSC[Dab][Aun]-OH; thioether N-14) | 0.0307 µM
9 | CC(C)C[C@H]1NC(=O)[C@H](C)N(C)C(=O)[C@H](Cc2ccc(C(N)=O)cc2)NC(=O)[C@H](Cc2ccc(-c3ccccc3)cc2)NC(=O)[C@H](Cc2ccc(C(N)=O)cc2)NC(=O)[C@H](Cc2c[nH]c3ccccc23)NC(=O)[C@H](CC(=O)O)NC(=O)[C@H](Cc2ccc(OCC(=O)O)cc2)NC(=O)[C@H](C(C)O)NC(=O)CSC[C@@H](C(=O)N[C@@H](CCN)C(=O)NCCCCCCCCCCC(=O)O)NC(=O)[C@H](CO)NC(=O)[C@H](Cc2cnc[nH]2)NC(=O)[C@H](CC2CCCCC2)NC(=O)[C@H](CCN)NC1=O (stereo partly drawn) [Example 2429] ({CH2CO}-[Thr(3ξ)]Y(Carboxymethyl)DW[Phe(4-CONH2)][Bip][Phe(4-CONH2)][NMeA][dL][Dab][Cha]HSC[Dab][Aun]-OH; thioether N-14) | 0.217 µM

Continued, values first:

Row | IC50 | Compound
10 | 0.036 µM | Cc1cccc(C[C@@H]2NC(=O)[C@H](CC(=O)O)NC(=O)[C@H](Cc3ccc(OCC(=O)O)cc3)NC(=O)[C@H](C(C)O)NC(=O)CSC[C@@H](C(=O)N[C@@H](CCN)C(=O)NCCCCCCCCCCC(=O)O)NC(=O)[C@H](CO)NC(=O)[C@H](Cc3cnc[nH]3)NC(=O)[C@H](CC3CCCCC3)NC(=O)[C@H](CCN)NC(=O)[C@@H](CC(C)C)NC(=O)[C@H](C)N(C)C(=O)[C@H](Cc3ccc(OCC(=O)O)cc3)NC(=O)[C@H](Cc3ccc(-c4ccccc4)cc3)NC(=O)[C@H](Cc3ccc(OCC(=O)O)cc3)NC2=O)c1 (stereo partly drawn) [Example 2426] ({CH2CO}-[Thr(3ξ)]Y(Carboxymethyl)D[Phe(3-Me)]Y(Carboxymethyl)[Bip]Y(Carboxymethyl)[NMeA][dL][Dab][Cha]HSC[Dab][Aun]-OH; thioether N-14)
11 | 0.259 µM | CC(C)C[C@H]1NC(=O)[C@H](C)N(C)C(=O)[C@H](Cc2ccc(OCC(=O)O)cc2)NC(=O)[C@H](Cc2ccc(-c3ccccc3)cc2)NC(=O)[C@H](Cc2ccc(OCC(=O)O)cc2)NC(=O)[C@H](Cc2c[nH]c3ccccc23)NC(=O)[C@H](CC(=O)O)NC(=O)[C@H](Cc2ccc(OCC(=O)O)cc2)NC(=O)[C@H](C(C)O)NC(=O)CSC[C@@H](C(=O)N[C@@H](CCN)C(=O)NCCCCCCCCCCC(=O)O)NC(=O)[C@H](CO)NC(=O)[C@H](Cc2cnc[nH]2)NC(=O)[C@H](CC2CCCCC2)NC(=O)[C@H](CCN)NC1=O (stereo partly drawn) [Example 2428] ({CH2CO}-[Thr(3ξ)]Y(Carboxymethyl)DWY(Carboxymethyl)[Bip]Y(Carboxymethyl)[NMeA][dL][Dab][Cha]HSC[Dab][Aun]-OH; thioether N-14)
12 | 0.0342 µM | Cc1cccc(C[C@@H]2NC(=O)[C@H](CC(=O)O)NC(=O)[C@H](Cc3ccc(OCC(=O)O)cc3)NC(=O)[C@H](C(C)O)NC(=O)CSC[C@@H](C(=O)N[C@@H](CCN)C(=O)NCCCCCCCCCCC(=O)O)NC(=O)[C@H](CO)NC(=O)[C@H](C(C)(C)O)NC(=O)[C@H](CC3CCCCC3)NC(=O)[C@H](CCN)NC(=O)[C@@H](CC(C)C)NC(=O)[C@H](C)N(C)C(=O)[C@H](Cc3ccc(OCC(=O)O)cc3)NC(=O)[C@H](Cc3ccc(-c4ccccc4)cc3)NC(=O)[C@H](Cc3ccc(C(=O)O)cc3)NC2=O)c1 (stereo partly drawn) [Example 2430] ({CH2CO}-[Thr(3ξ)]Y(Carboxymethyl)D[Phe(3-Me)][Phe(4-COOH)][Bip]Y(Carboxymethyl)[NMeA][dL][Dab][Cha][Val(3-OH)]SC[Dab][Aun]-OH; thioether N-14)
